Source: patent US7390523B2, “Method of forming a diffusion barrier layer for implantable devices” (Advanced Cardiovascular Systems Inc., priority 2000, dated 2008)
Several values for one entry are separate records, joined by “and”; a condition that tells them apart may be missing. Equal values may be shown once. *1 amine or outer side, *2 acyl side, *3 side chain or, on linkers, in order; H or OH if unused. Where a SMILES comes first, the peptide text is derived from it. Bridges are numbered along the chain shown (N, C = ends). Roman numbers before positions name the chains, in order. [ ]: non-standard residue; d: D form. Actinocin(9to1) = Cc1c2oc3c(C)ccc(C(=O)[*:1])c3nc-2c(C(=O)[*:2])c(N)c1=O; NMeV = CN[C@H](C(=O)O)C(C)C; Sar = CNCC(=O)O

Columns and labels:
[1] = 24 hour elution of vinblastine from EVOH coated stents in phosphated saline solution, HPLC analysis; type: physicochemical; conditions: for ug Release: Sterilized (electron beam) stent, 5 ml phosphated saline pH 7.4, room temperature; for Total uG Released / uG Release per Hour: Sterilized stent
Method: MULTI-LINK® stents were cleaned by placement in an ultrasonic bath of isopropyl alcohol solution for 10 minutes. The stents were dried and plasma cleaned in a plasma chamber. An EVOH solution was made with 1 gram of EVOH and 7 grams of DMSO, making an EVOH:DMSO ratio of 1:7. Vinblastine was added to the 1:7 EVOH:DMSO solution. Vinblastine constituted 2.5% by weight of the total weight of the solution. The solution was vortexed and placed in a tube. The cleaned MULTI-LINK® stents were attached to mandrel wires and dipped into the solution. The coated stents were passed over a hot plate, for about 3-5 seconds, with a temperature setting of about 60° C. The coated stents were cured for 6 hours in an air box then placed in a vacuum oven at 60° C. for 24 hours. The above process was repeated twice, having a total of three layers. The average weight of the coating was 0.00005 gram, with an estimated vinblastine concentration of 12 microgram per stent. Some of the stents were sterilized by electron beam radiation. The sterilized and unsterilized vinblastine coated stents were tested for a 24 hour elution period by placing one sterilized and one unsterilized stent in 5 ml of phosphated saline solution (pH 7.4) at room temperature with rotational motion. The amount of vinblastine eluted was evaluated by High Performance Liquid Chromatography (HPLC) analysis. The results of this test are given below in Tables 4A and 4B and plotted in FIG. 3.

[2] = tested on: coronary arteries of a porcine stent injury model; test: Reduction in restenosis in the porcine coronary artery stent injury model; type: in vivo, Domestic swine; conditions: 28-day endpoint; for Percent Diameter Stenosis, angiographic data (QCA): microporous balloon catheter delivery before stenting
Method: Porcine coronary models were used to assess the degree of the inhibition of neointimal formation in the coronary arteries of a porcine stent injury model by Actinomycin D, delivered with a microporous balloon catheter (1×10^6 pores/mm^2 with sizes ranging from 0.2-0.8 micron).
The preclinical animal testing was performed in accordance with the NIH Guide for Care and Use of Laboratory Animals. Domestic swine were utilized to evaluate effect of the drug on the inhibition of the neointimal formation. Each testing procedure, excluding the angiographic analysis at the follow-up endpoints, was conducted using sterile techniques. During the study procedure, the activated clotting time (ACT) was monitored regularly to ensure appropriate anticoagulation. Base line blood samples were collected for each animal before initiation of the procedure. Quantitative coronary angiographic analysis (QCA) and intravascular ultrasound (IVUS) analysis was used for vessel size assessment.
The vessels at the sites of the delivery were denuded by inflation of the PTCA balloons to 1:1 balloon to artery ratio and moving the balloons back and forth 5 times. The drug was delivered to the denuded sites at 3.5 atm (3.61 Kg/sq cm) for 2 minutes using the microporous balloon catheters before stent deployment. The average volume of delivery was about 3.3+/−1.2 ml. Following drug delivery, stents were deployed at the delivery site such that final stent to artery ratio was 1.1:1.
QCA and IVUS analyses were used for stent deployment guidance. Pre-stenting IVUS measurements of the lumen size at the targeted vessel sites were performed for determination of the balloon (size) inflation pressure. Quantitative analysis of the stented coronary arteries to compare pre-stenting, post-stenting, follow-up minimal luminal diameters, stent recoil, and balloon/stent to artery ratio were performed. Following stent implantation and final angiogram, all devices were withdrawn and the wounds closed; the animals were allowed to recover from anesthesia as managed by the attending veterinarian or animal care professionals at the research center.
Upon return to the research laboratory at the 28-day endpoint, angiographic assessments were performed. Coronary artery blood flow was assessed and the stented vessels were evaluated to determine minimal lumen diameter. The animals were euthanized following this procedure at the endpoint. Following euthanasia, the hearts were pressure perfusion fixed with formalin and prepared for histological analysis, encompassing light microscopy, and morphometry. Morphometric analysis of the stented arteries included assessment of the position of the stent struts and determination of vessel/lumen areas, percent (%) stenosis, injury scores, intimal and medial areas and intima/media ratios. Percent stenosis is quantitated by the following equation: 100(IEL area−lumen area)/IEL area
where IEL is the internal elastic lamia.
The control group of animals received delivery of water instead of the drug. The test group of animals received actinomycin D in two different concentration of 10^−5M and 10^−4M. […] FIGS. 5A and 5B illustrate sample pictures of the histology slides of the coronary vessels from the control and the Dose 1 group, respectively.

With `CC[C@]1(O)C[C@@H]2CN(CCc3c([nH]c4ccccc34)[C@@](C(=O)OC)(c3cc4c(cc3OC)N(C)[C@H]3[C@@](O)(C(=O)OC)[C@H](OC(C)=O)[C@]5(CC)C=CCN6CC[C@]43[C@@H]65)C2)C1` [Vinblastine] the “ug Release” value ([1]; 0 Hours) was 0 µg, the “ug Release” value ([1]; 0.5 Hours) was 2.14 µg and the “ug Release” value ([1]; 3 Hours) was 1.7 µg. For the same molecule, the “ug Release” value ([1]; 4 Hours) was 0.28 µg, the “ug Release” value ([1]; 6 Hours) was 0.26 µg and the “ug Release” value ([1]; 24 Hours) was 2.05 µg. The “Total uG Released” value ([1]; 0 Hours) was 0 uG, the “uG Release per Hour” value ([1]; 0 Hours) was 0 uG per Hour and the “Total uG Released” value ([1]; 0.5 Hours) was 2.14 uG. For the same molecule, the “uG Release per Hour” value ([1]; 0.5 Hours) was 4.28 uG per Hour, the “Total uG Released” value ([1]; 3 Hours) was 3.84 uG and the “uG Release per Hour” value ([1]; 3 Hours) was 0.68 uG per Hour. For the same molecule, the “Total uG Released” value ([1]; 4 Hours) was 4.12 uG, the “uG Release per Hour” value ([1]; 4 Hours) was 0.28 uG per Hour and the “Total uG Released” value ([1]; 6 Hours) was 4.38 uG. The “uG Release per Hour” value ([1]; 6 Hours) was 0.13 uG per Hour, the “Total uG Released” value ([1]; 24 Hours) was 6.43 uG and the “uG Release per Hour” value ([1]; 24 Hours) was 0.11 uG per Hour. The “effect of electron beam radiation procedure on the release of vinblastine from EVOH” value ([1]; sterilized vs unsterilized coated stents, 24 hour elution) was “does not interfere”.

For `Cc1c2oc3c(C)ccc(C(=O)N[C@@H]4C(=O)N[C@H](C(C)C)C(=O)N5CCC[C@H]5C(=O)N(C)CC(=O)N(C)[C@@H](C(C)C)C(=O)O[C@@H]4C)c3nc-2c(C(=O)N[C@@H]2C(=O)N[C@H](C(C)C)C(=O)N3CCC[C@H]3C(=O)N(C)CC(=O)N(C)[C@@H](C(C)C)C(=O)O[C@@H]2C)c(N)c1=O` [actinomycin D] (I: T[dV]P[Sar][NMeV] / II: T[dV]P[Sar][NMeV]; ester I:1-I:C, II:1-II:C; linker I:N-II:N via Actinocin(9to1)), the “Percent Stenosis (IEL area-lumen area)/IEL area, histomorphometric data” value ([2]; DOSE 1 1E−05 M, n = 30) was 51.8%, the “Residual Lumen (Lumen area)/IEL area, histomorphometric data” value ([2]; DOSE 1 1E−05 M, n = 30) was 0.49 and the “Percent Diameter Stenosis, angiographic data (QCA)” value ([2]; DOSE 1 1E−05 M, n = 10) was 36.8%. For the same molecule, the “Percent Stenosis (IEL area-lumen area)/IEL area, histomorphometric data” value ([2]; DOSE 2 1E−04 M, n = 21) was 54.1%, the “Residual Lumen (Lumen area)/IEL area, histomorphometric data” value ([2]; DOSE 2 1E−04 M, n = 21) was 0.46 and the “Percent Diameter Stenosis, angiographic data (QCA)” value ([2]; DOSE 2 1E−04 M, n = 7) was 32.3+/−11.7% and 32.3%.
